Experiment [1] addresses T1, E. coli penicillin amidase (Escherichia coli, UniProt P06875). As to the kind of experiment: pH-shift colorimetric kinetic assay. Type of experiment: biochemical. Particulars: pH 8.4, 10 mM m-nitrophenol, 25 °C, 5 U/ml enzyme.
The target of experiment [2] is T1, E. coli penicillin amidase. As to the kind of experiment: pH-shift colorimetric kinetic assay. The experiment is classed as biochemical. Particulars: 5 mM MOPS pH 7.2, 25 °C.

T1 sequence (P06875 27-235): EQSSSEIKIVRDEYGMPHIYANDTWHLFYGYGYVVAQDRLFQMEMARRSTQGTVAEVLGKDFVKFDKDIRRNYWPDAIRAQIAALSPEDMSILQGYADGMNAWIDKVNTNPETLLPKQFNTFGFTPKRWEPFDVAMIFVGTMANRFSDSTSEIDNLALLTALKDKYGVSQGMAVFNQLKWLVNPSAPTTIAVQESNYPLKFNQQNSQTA
T1 sequence (P06875 290-846): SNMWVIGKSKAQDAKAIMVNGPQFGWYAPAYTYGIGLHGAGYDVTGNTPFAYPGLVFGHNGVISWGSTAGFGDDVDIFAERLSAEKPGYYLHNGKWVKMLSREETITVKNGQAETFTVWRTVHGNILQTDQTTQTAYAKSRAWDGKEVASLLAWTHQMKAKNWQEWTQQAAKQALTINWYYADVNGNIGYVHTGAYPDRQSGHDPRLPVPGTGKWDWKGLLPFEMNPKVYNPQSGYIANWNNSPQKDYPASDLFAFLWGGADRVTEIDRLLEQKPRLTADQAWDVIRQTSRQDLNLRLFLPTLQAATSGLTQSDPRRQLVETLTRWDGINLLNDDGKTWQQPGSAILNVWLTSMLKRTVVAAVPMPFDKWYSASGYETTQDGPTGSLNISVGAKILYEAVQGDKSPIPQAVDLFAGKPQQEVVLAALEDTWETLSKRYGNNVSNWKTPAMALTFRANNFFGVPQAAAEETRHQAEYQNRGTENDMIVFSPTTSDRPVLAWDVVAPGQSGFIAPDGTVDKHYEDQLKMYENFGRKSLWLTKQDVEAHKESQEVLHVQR

`CC1(C)S[C@H]([C@H](NC(=O)Cc2ccccc2)C(=O)O)N[C@H]1C(=O)O` [benzylpenicilloic acid]: the “pH-shift colorimetric kinetic assay (m-nitrophenol); LCMS” value in experiment [1] is “when both Put1 and E. coli penicillin amidase were incubated with benzylpenicilloic acid as a substrate”.
Regarding `CC1(C)S[C@@H]2[C@H](NC(=O)Cc3ccccc3)C(=O)N2[C@H]1C(=O)O` [penicillin], the “pH-shift colorimetric kinetic assay (p-nitrophenol)” value in experiment [2] is “E. coli penicillin amidase and commercial B. cereus β-lactamase enzymes exhibit Michaelis-Menten kinetics with penicillin”.
